Test results from ChEMBL document CHEMBL1201862, “PubChem BioAssay data set” (2004).
Activity calls are given as the source filed them.

Key:
[1] = biological target: T1, Short transient receptor potential channel 4 (Mus musculus, UniProt Q9QUQ5); test: calcium entry via TRPC4 opening agents – cell-based, HEK293 TRPC4/mu-opioid, Fluo-4 calcium, dose response (AID 434937); type: functional
T1 sequence (Q9QUQ5 whole entry): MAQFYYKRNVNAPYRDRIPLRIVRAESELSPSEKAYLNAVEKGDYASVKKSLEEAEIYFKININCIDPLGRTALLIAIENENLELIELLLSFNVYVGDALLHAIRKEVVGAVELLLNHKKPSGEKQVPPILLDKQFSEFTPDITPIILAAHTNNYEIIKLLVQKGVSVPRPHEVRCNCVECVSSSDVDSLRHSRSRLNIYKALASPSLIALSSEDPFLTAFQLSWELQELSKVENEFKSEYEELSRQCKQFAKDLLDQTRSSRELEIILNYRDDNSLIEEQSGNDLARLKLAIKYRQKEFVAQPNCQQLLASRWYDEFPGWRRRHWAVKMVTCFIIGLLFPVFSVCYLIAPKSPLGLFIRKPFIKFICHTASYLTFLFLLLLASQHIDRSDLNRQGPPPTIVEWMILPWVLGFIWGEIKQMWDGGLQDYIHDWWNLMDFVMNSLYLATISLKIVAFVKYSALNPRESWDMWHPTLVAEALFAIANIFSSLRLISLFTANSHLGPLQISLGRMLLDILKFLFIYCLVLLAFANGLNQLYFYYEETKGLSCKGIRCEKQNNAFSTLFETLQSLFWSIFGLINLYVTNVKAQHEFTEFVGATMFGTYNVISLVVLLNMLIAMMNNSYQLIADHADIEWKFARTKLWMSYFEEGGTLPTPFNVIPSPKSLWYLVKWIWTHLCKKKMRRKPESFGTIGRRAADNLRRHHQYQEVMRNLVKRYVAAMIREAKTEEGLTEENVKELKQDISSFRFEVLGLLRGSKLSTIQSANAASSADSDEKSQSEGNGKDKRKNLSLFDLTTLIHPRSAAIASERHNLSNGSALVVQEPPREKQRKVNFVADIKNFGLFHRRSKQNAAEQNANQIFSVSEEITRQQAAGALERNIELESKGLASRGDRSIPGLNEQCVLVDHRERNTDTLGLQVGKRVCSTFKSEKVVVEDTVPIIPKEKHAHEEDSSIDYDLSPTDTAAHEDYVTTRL

[2] = tested on: Streptococcus sp. 'group A'; test: Streptococcus pyogenes SK(-)GAS viability under kanamycin – luminescence, BacTiterGlo, confirmation, counter-screen for streptokinase expression inhibitor project, dose response (AID 1900); type: functional, organism-based
Large T antigen = Large T antigen (Simian virus 40, UniProt P03070); type: functional, Betapolyomavirus macacae;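 also: Confirmatory-stage PubChem screen for compounds that inhibit SV40 T antigen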
Large T antigen, sequence (P03070 whole entry): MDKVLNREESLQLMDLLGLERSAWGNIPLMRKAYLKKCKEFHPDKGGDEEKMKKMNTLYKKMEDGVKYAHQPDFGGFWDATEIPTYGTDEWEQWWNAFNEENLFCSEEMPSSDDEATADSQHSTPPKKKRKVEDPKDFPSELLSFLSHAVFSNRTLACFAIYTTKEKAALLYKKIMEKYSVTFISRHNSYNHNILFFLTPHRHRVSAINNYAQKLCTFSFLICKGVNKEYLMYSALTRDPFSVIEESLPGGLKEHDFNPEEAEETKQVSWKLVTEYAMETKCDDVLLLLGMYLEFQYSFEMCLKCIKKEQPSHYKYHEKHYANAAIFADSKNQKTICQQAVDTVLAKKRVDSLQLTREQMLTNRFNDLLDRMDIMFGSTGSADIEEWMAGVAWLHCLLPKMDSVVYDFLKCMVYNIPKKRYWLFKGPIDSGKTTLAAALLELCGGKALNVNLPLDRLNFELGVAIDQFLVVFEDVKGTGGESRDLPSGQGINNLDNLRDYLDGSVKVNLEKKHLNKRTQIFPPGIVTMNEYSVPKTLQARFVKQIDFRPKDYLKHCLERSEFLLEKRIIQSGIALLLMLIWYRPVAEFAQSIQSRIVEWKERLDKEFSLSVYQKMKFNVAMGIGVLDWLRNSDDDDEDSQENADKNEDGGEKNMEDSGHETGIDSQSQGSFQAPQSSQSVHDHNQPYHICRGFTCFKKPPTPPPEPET

Streptococcus = test: GAS UMAA2166 growth inhibition – luminescence, BacTiterGlo, counter-screen for streptokinase expression inhibitor project, dose response (AID 1915); type: functional, organism-based;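 also: potency for reduction of bacterial viability or growth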
Streptokinase A = biological target: T2, Streptokinase A (Streptococcus pyogenes serotype M1, UniProt P10520); test: viability-normalized secreted streptokinase activity reduction – plasminogen activation absorbance, OD405, dose response (AID 1914); type: functional, Streptococcus pyogenes M1 GAS;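 also: secreted streptokinase activity via plasminogen activation per viability signal from cell pellet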
T2 sequence (P10520 whole entry): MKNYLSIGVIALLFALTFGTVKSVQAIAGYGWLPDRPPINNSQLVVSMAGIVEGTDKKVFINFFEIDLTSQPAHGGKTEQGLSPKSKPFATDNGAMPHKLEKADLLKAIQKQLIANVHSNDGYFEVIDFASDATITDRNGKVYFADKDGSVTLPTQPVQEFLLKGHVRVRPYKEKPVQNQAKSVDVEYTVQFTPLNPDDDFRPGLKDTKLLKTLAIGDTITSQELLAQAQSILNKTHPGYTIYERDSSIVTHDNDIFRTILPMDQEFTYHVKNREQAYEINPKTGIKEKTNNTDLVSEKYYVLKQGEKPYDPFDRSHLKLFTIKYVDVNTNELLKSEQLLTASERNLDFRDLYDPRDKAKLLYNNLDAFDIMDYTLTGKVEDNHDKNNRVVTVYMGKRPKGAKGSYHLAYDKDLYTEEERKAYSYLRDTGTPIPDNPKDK

[3] = biological target: Induced myeloid leukemia cell differentiation protein Mcl-1 (Homo sapiens, UniProt Q07820); type: functional
Induced myeloid leukemia cell differentiation protein Mcl-1, sequence (Q07820 whole entry): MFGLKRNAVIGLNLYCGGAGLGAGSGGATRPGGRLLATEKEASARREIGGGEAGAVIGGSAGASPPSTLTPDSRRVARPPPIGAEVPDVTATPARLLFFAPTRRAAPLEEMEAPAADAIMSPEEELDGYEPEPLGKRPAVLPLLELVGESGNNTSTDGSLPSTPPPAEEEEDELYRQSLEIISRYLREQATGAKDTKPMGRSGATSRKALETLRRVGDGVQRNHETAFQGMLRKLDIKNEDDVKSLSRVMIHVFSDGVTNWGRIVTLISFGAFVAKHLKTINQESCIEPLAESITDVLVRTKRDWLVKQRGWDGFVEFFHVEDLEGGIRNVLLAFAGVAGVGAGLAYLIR

[4] = microbe, parasite or virus in culture; type: functional; details: Mycobacterium tuberculosis
[5] = viability of HCT116 lacking mutant beta-catenin – cell-based, human colon tumor, dose response (AID 1045); type: functional;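 also: HCT116 colon tumor cells with beta catenin knocked out; cells exposed to compound for 60 hours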
[6] = viability of PTEN-deleted HCT116 cells – cell-based, HCT116 PTEN knockout, dose response (AID 1047); type: functional;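 also: HCT116 colon tumor cells with PTEN knocked out; cells exposed to compound for 60 hours before readout; potency for loss of cell viability measured by luminescence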
Nonstructural protein 1 = Nonstructural protein 1 (Influenza A virus, UniProt Q194T2); type: functional, Influenza A virus (A/California/07/2009(H1N1))
Nonstructural protein 1, sequence (Q194T2 whole entry): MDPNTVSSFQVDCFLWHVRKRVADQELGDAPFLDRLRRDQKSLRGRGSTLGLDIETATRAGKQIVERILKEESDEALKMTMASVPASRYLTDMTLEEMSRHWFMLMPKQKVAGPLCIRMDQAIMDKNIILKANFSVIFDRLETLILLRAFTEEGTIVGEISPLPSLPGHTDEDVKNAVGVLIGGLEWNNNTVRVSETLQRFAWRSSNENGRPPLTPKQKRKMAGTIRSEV

[7] = biological target: T3, Histone-lysine N-methyltransferase NSD2 (Homo sapiens, UniProt O96028); type: biochemical
T3 sequence (O96028 whole entry): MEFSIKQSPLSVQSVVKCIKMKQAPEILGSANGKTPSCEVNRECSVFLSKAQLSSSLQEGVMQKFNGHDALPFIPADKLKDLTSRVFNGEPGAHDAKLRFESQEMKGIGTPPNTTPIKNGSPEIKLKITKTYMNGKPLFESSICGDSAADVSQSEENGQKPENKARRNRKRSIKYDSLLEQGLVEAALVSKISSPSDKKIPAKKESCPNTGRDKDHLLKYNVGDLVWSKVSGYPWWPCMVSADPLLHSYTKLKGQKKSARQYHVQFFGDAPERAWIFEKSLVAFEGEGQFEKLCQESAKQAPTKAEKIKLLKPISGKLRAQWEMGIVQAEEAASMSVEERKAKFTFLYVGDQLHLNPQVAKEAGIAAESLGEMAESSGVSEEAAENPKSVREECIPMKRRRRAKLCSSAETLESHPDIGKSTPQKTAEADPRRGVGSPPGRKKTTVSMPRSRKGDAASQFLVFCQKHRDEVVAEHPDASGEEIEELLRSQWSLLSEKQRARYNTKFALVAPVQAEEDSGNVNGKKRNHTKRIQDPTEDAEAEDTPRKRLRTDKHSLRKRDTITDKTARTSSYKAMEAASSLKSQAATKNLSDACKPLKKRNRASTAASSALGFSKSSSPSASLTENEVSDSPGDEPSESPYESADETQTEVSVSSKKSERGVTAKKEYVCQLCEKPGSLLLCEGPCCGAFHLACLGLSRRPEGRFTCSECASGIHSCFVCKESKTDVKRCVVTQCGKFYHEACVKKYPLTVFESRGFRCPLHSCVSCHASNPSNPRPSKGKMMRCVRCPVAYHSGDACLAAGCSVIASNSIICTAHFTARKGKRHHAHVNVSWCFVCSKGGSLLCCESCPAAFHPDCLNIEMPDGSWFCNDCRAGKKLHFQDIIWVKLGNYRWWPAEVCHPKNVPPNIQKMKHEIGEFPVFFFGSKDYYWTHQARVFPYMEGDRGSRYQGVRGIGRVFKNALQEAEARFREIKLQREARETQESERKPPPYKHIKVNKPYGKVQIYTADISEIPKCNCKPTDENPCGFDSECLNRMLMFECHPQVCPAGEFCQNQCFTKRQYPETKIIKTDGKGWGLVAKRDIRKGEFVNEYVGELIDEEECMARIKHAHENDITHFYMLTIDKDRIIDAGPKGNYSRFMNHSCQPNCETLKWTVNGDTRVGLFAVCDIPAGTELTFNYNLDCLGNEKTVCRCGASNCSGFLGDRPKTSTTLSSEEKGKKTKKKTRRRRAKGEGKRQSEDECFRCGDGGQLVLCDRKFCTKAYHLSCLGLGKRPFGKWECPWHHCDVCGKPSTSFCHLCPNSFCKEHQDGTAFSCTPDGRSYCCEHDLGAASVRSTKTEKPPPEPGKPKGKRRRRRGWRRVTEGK

[8] = biological target: T4, Mannose-6-phosphate isomerase (Homo sapiens, UniProt P34949); test: MPI inhibition at elevated mannose 6-phosphate – biochemical, fluorescence intensity, high mannose 6-phosphate, primary screen (AID 1220)
T4 sequence (P34949 whole entry): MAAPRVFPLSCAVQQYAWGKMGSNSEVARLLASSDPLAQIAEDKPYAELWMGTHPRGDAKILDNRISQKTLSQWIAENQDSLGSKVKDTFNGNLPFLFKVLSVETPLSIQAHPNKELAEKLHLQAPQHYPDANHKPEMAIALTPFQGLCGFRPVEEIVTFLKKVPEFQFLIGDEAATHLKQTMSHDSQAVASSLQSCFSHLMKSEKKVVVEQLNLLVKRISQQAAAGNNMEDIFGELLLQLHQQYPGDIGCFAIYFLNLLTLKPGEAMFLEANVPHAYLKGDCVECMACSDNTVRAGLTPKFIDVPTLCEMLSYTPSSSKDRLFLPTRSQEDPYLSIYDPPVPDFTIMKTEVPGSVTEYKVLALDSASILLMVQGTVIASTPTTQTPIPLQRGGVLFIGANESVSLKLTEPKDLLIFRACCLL

[9] = biological target: T5, Rac GTPase-activating protein 1 (Homo sapiens, UniProt Q9H0H5); test: blockers of MgcRacGAP-driven Rac1 GTP hydrolysis – biochemical, ADP Hunter fluorescence, primary and confirmatory, confirmation (AID 624330); type: functional
T5 sequence (Q9H0H5 whole entry): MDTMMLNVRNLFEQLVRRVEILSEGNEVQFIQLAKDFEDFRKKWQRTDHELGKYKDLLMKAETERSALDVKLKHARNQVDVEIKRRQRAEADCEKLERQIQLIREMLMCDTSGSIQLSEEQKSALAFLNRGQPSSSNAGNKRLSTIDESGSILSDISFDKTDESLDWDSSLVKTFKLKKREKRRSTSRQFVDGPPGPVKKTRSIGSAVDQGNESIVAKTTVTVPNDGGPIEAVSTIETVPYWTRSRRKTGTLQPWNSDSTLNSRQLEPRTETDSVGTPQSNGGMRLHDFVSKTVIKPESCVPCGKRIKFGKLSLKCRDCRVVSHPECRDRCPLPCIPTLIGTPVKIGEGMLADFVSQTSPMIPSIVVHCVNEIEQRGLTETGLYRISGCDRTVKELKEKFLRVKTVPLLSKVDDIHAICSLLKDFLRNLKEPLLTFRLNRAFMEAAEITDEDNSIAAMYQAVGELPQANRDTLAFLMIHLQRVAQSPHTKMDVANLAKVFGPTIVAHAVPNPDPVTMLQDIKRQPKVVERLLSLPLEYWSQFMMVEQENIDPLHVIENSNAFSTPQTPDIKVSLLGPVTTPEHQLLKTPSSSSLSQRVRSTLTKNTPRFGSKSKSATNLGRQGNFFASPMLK

Q: Which EC50 [1] does the source give for `Cc1ccccc1N=C(S)NCCc1ccccn1` here?
A: 5.31 µM (active)

Q: Which EC50 [2] does the source give for `CC(=O)O[C@H]1C[C@@]2(C)[C@@H](C[C@@H](O)[C@H]3[C@@]4(C)CC[C@@H](O)[C@@H](C)[C@@H]4CC[C@@]32C)/C1=C(\CCC=C(C)C)C(=O)O` here?
A: 0.161 µM (active)

Q: What about the IC50 (Large T antigen) of the same compound?
A: 20.4 µM (active)

Q: What about the EC50 (Streptococcus) of the same compound?
A: 0.947 µM (active)

Q: And the EC50 (Streptokinase A)?
A: 0.362 µM (active)

Q: With `COc1ccc(N2CCN(C(=O)c3ccc(CSc4ccccc4)cc3)CC2)cc1` as the compound, how does the IC50 [3] read?
A: 4.83 µM (not active)

Q: For `Cc1cncn1CCc1nc2c3ccccc3nc(SCC(=O)Nc3cccc(Cl)c3)n2n1`, which CC50 [4] is on record?
A: 14.3 µM (active)

Q: And the EC50 [5]?
A: 10.7 µM (active)

Q: What about the EC50 [6] of the same compound?
A: 13.3 µM (active)

Q: With `COc1ccc(CNCCc2c[nH]c3ccccc23)cc1OC` as the compound, how does the EC50 [1] read?
A: 5.96 µM (active)

Q: With `N=C(N)NN=C1CCCCCCCCCCC1` as the compound, how does the EC50 [1] read?
A: 7.5 µM (active)

Q: For `COc1ccc(NC(=O)CSC2=C(C#N)C(c3ccco3)C(C(=O)Nc3nc4ccccc4s3)=C(C)N2)cc1` (configuration not stated), which CC50 [4] is on record?
A: > 40 µM (active)

Q: For `CCC(=O)N1CCc2cc(Br)cc(S(=O)(=O)NCCCN(C)Cc3ccccc3)c21`, which EC50 [1] is on record?
A: 0.0947 µM (active)

Q: Which IC50 (Nonstructural protein 1) does the source give for `CN(C)c1cccc2c1C(=O)c1ccccc1C2=O` here?
A: 10.1 µM (active)

Q: What about the AC50 [7] of the same compound?
A: 5.57 µM (active)

Q: With `Nc1cc2nc[nH]c2cc1N` as the compound, how does the IC50 [3] read?
A: > 54 µM (not active)

Q: And the IC50 [8]?
A: > 50 µM (not active)

Q: Which EC50 [1] does the source give for `CCOC(=O)c1cc(C)n(CCc2c[nH]cn2)c1C` here?
A: 0.0533 µM (active)

Q: For `CC(C)(C)c1cc(C(=O)N/N=C/c2ccc(O)cc2)n(-c2ccccc2)n1`, which IC50 (Large T antigen) is on record?
A: 46.2 µM (active)

Q: And the IC50 [9]?
A: 122 µM (active)

Q: For `Oc1ccc(/C=N/Nc2ccc(C(F)(F)F)cn2)cc1O`, which IC50 (Large T antigen) is on record?
A: 48.3 µM (active)

Q: For `CCOc1ccc(/C=N/n2nnnc2N)cc1O`, which IC50 (Large T antigen) is on record?
A: 9.64 µM (active)
